Marks after values point to notes of the source that are not given here. Where a SMILES comes first, the peptide text is derived from it. The star is where a group is joined. Cbz = O=C(OCc1ccccc1)*; OtBu = CC(C)(C)O*
Experiments:
ICR Swiss mice = assay: Bone volume and bone formation rates in ICR Swiss mice; type: in vivo; settings: n=10
Experimental: Briefly, test compound, positive control compound, PBS, or vehicle alone is administered subcutaneously once per day for 35 days. All animals are injected with calcein nine days and two days before sacrifice (two injections of calcein administered each designated day). Weekly body weights are determined. At the end of the 35-day cycle, the animals are weighed and bled by orbital or cardiac puncture. Serum calcium, phosphate, osteocalcin, and CBCs are determined. Both leg bones (femur and tibia) and lumbar vertebrae are removed, cleaned of adhering soft tissue, and stored in 70% ethanol for evaluation, as performed by peripheral quantitative computed tomography (pQCT; Ferretti, J., Bone (1995) 17:353S-64S), dual energy X-ray absorptiometry (DEXA; Laval-Jeantet A., et al., Calcif Tissue Intl (1995) 56:14-18; J. Casez, et al., Bone and Mineral (1994) 26:61-68) and/or histomorphometry. The effect of test compounds on bone remodeling can thus be evaluated.
Microtubule Inhibitor TN-16 Increases Bone Volume and Bone Formation Rates in ICR Swiss Mice.

[1] = system: Calvariae of one-month-old ICR Swiss mice; assay: New bone formation on calvariae (new bone width by histomorphometry); type: in vivo; settings: x2d, mean ± SE, n=5
Experimental: (§1) Male ICR Swiss white mice, aged 4-6 weeks and weighing 13-26 gm, are employed, using 4-5 mice per group. The calvarial bone growth assay is performed as described in PCT application WO95/24211, incorporated by reference. Briefly, the test compound or appropriate control vehicle is injected into the subcutaneous tissue over the right calvaria of normal mice. Typically, the control vehicle is the vehicle in which the compound was solubilized, and is PBS containing 5% DMSO or is PBS containing Tween (2 μl/10 ml). The animals are sacrificed on day 14 and bone growth measured by histomorphometry. Bone samples for quantitation are cleaned from adjacent tissues and fixed in 10% buffered formalin for 24-48 hours, decalcified in 14% EDTA for 1-3 weeks, processed through graded alcohols; and embedded in paraffin wax. Three to five μm sections of the calvaria are prepared, and representative sections are selected for histomorphometric assessment of the effects on bone formation and bone resorption. Sections are measured by using a camera lucida attachment to trace directly the microscopic image onto a digitizing plate. Bone changes are measured on sections cut 200 μm apart, over 4 adjacent 1×1 mm fields on both the injected and noninjected sides of the calvaria. New bone is identified by its characteristic woven structure, and osteoclasts and osteoblasts are identified by their distinctive morphology. Histomorphometry software (OsteoMeasure, Osteometrix, Inc., Atlanta) is used to process digitizer input to determine cell counts and measure areas or perimeters.
as §1, with “In more detail, male” for “Male”, “above.” for “in PCT application WO95/24211, incorporated by reference.”
Selected compounds and appropriate controls were assayed in vitro (ex vivo) for bone formation activity (described above in “Techniques for Neonatal Mouse Calvaria Assay (in vitro)). Histomorphometrical assessments of ex vivo calvaria were carried out using an OsteoMetrics bone morphometry measurement program, according to the manufacturer's instructions. Measurements were determined using either a 10- or 20-fold objective with a standard point counting eyepiece graticule.
New bone formation was determined (using a 10× objective) by measuring the new bone area formed in one field in 3 representative sections of each bone (4 bones per group). Each measurement was carried out ½ field distance from the end of the suture. Both total bone and old bone area were measured. Data were expressed as new bone width in mm.

BMP2 promoter-Luc = assay: High throughput screening: BMP2 promoter-luciferase reporter in 2T3-BMP-2-LUC osteoblast cells; type: cell-based, mouse; settings: 2T3 cells, mean ± SE, n=4
Text: 2, 1995, the entire contents of which are incorporated herein by reference. This assay is also described as a portion of a study of immortalized murine osteoblasts (derived from a mouse expressing a transgene composed of a BMP2 promoter driving expression of T-antigen) in Ghosh-Choudhery, N., et al., Endocrinology (1996) 137:331-39. In this study, the immortalized cells were stably transfected with a plasmid containing a luciferase reporter gene driven by a mouse BMP2 promoter (˜2736/114 bp), and responded in a dose-dependent manner to recombinant human BMP2.
Briefly, the assay utilizes cells transformed permanently or transiently with constructs in which the promoter of a bone morphogenetic protein, specifically BMP2 or BMP4, is coupled to a reporter gene, typically luciferase. These transformed cells are then evaluated for the production of the reporter gene product; compounds that activate the BMP promoter will drive production of the reporter protein, which can be readily assayed. Many thousands of compounds have been subjected to this rapid screening technique, and only a very small percentage are able to elicit a level of expression of reporter gene 5-fold greater than that produced by vehicle. […] The active compounds (“BMP promoter-active compounds” or “active compounds”) are useful in promoting bone or cartilage growth, and thus in the treatment of vertebrates in need of bone or cartilage growth.
In more detail, the 2T3-BMP-2-LUC cells, a stably transformed osteoblast cell line described in Ghosh-Choudhury et al. Endocrinology (1996) 137:331-39, referenced above, was employed. The cells were cultured using α-MEM, 10% FCS with 1% penicillin/streptomycin and 1% glutamine (“plating medium”), and were split 1:5 once per week. For the assay, the cells were resuspended in a plating medium containing 4% FCS, plated in microtiter plates at a concentration of 5×10^3 cells (in 50 μl)/well, and incubated for 24 hours at 37° C. in 5% CO2. To initiate the assay, 50 μl of the test compound or the control in DMSO was added at 2× concentration to each well, so that the final volume was 100 μl. The final serum concentration was 2% FCS, and the final DMSO concentration was 1%. Compound 59-0008 (10 μM) was used as a positive control.
The treated cells were incubated for 24 hours at 37° C. and 5% CO2. The medium was then removed, and the cells were rinsed three times with PBS. After removal of excess PBS, 25 μl of 1× cell culture lysing reagent (Promega #E153A) was added to each well and incubated for at least ten minutes. Optionally, the plates/samples could be frozen at this point. To each well was added 50 μl of luciferase substrate (Promega #E152A; 10 ml Promega luciferase assay buffer per 7 mg Promega luciferase assay substrate). Luminescence was measured on an automated 96-well luminometer, and was expressed as either picograms of luciferase activity per well or as picograms of luciferase activity per microgram of protein, as provided below, using TN-16 as the test compound.

mice = assay: In vivo assay for bone mineral density; settings: x2d, mean ± SE, n=10

CCC(C)C(NC(=O)OCc1ccccc1)C(=O)NC(CCC(=O)OC(C)(C)C)C(=O)NC(C)C(=O)NC(C=O)CC(C)C (stereo not drawn) [Ps-1] (Cbz-IE(OtBu)AL-aldehyde; configuration not given here)
Bone Formation Rate: BFR/BS (ICR Swiss mice; 1 mg/kg/d, x5, mean ± SE): 1.766 ± 0.425* μm^3/μm^2/day | Bone Volume (%, BV/TV) (ICR Swiss mice; 1 mg/kg/d, x5, mean ± SE): 27.13 ± 1.51 %

COc1cc2c(c(OC)c1OC)-c1ccc(OC)c(=O)cc1C(NC(C)=O)CC2 (stereo not drawn) [Colchicine, N-(5,6,7,9-Tetrahydro-1,2,3,10-tetra-methoxy-9-oxobenzo[a]heptalen-7-yl) acetamide]
New Bone Width ([1]; 0.1 mg/kg/d): 0.225 ± 0.013 mm | New Bone Width ([1]; 1.0 mg/kg/d): 0.305 ± 0.020 mm

CC(Nc1ccccc1)=C1C(=O)NC(Cc2ccccc2)C1=O (stereo not drawn) [TN-16, 3-(1-Anilinoethylidene)-5-benzylpyrrolidine-2,4-dione]
Luciferase Activity (Fold Change) (BMP2 promoter-Luc) (BMP2 promoter-Luc; TN-16 0.16 μM): 2.4 ± 0.40 Fold Change | Luciferase Activity (Fold Change) (BMP2 promoter-Luc) (BMP2 promoter-Luc; TN-16 0.31 μM): 4.0 ± 0.09 Fold Change | Luciferase Activity (Fold Change) (BMP2 promoter-Luc) (BMP2 promoter-Luc; TN-16 0.61 μM): 4.8 ± 0.50 Fold Change | Luciferase Activity (Fold Change) (BMP2 promoter-Luc) (BMP2 promoter-Luc; TN-16 1.25 μM): 5.6 ± 0.12 Fold Change | Luciferase Activity (Fold Change) (BMP2 promoter-Luc) (BMP2 promoter-Luc; TN-16 2.5 μM): 6.2 ± 0.30 Fold Change | New Bone Width ([1]; 2 mg/kg/d): 0.120 ± 0.016 mm | New Bone Width ([1]; 4 mg/kg/d): 0.376 ± 0.029 mm | New Bone Width ([1]; 8 mg/kg/d): 0.525 ± 0.035 mm | BMD (mice; Calvariae (1-month-old mice), 4 mg/kg/d): 26.0 ± 0.7 mg/cm^2 | BMD (mice; Calvariae (1-month-old mice), 8 mg/kg/d): 31.3 ± 0.5 mg/cm^2 | BMD (mice; Femora (3-month-old mice), 2 mg/kg/d): 90.1 ± 2.2 mg/cm^2 | BMD (mice; Femora (3-month-old mice), 4 mg/kg/d): 100.9 ± 1.6 mg/cm^2 | BMD (mice; Femora (3-month-old mice), 8 mg/kg/d): 102.1 ± 1.5 mg/cm^2 | BMD (mice; Tibiae (3-month-old mice), 2 mg/kg/d): 78.0 ± 2.2 mg/cm^2 | BMD (mice; Tibiae (3-month-old mice), 4 mg/kg/d): 84.5 ± 1.0 mg/cm^2 | BMD (mice; Tibiae (3-month-old mice), 8 mg/kg/d): 85.5 ± 0.8 mg/cm^2 | Bone Formation Rate: BFR/BS (ICR Swiss mice; 2 mg/kg/d, x2, mean ± SE): 0.815 ± 0.129* μm^3/μm^2/day | Bone Volume (%, BV/TV) (ICR Swiss mice; 2 mg/kg/d, x2, mean ± SE): 23.42 ± 3.13 % | Bone Formation Rate: BFR/BS (ICR Swiss mice; 4 mg/kg/d, x2, mean ± SE): 1.130 ± 0.293* μm^3/μm^2/day | Bone Volume (%, BV/TV) (ICR Swiss mice; 4 mg/kg/d, x2, mean ± SE): 27.21 ± 2.14 % | Bone Formation Rate: BFR/BS (ICR Swiss mice; 8 mg/kg/d, x2, mean ± SE): 1.231 ± 0.181** μm^3/μm^2/day | Bone Volume (%, BV/TV) (ICR Swiss mice; 8 mg/kg/d, x2, mean ± SE): 25.44 ± 1.29 %

COC(=O)Nc1nc2cc(C(=O)c3cccs3)ccc2[nH]1 [Nocodazole, Methyl-[5-(2-thienylcarbonyl)-1 H-benzimidazole-2-yl]-carbamate]
New Bone Width ([1]; 1.5 mg/kg/d): 0.231 ± 0.027 mm

From patent publication US20030181374A1, “Methods and compositions for stimulating bone growth using inhibitors of microtubule assembly” (priority 2002, published 2003)
